Key:
[1] = target: T1, cytosolic kinase domain of KDR kinase (Homo sapiens, UniProt P35968); test: KDR Assay (ELISA, poly(Glu4;Tyr1) phosphorylation); format: biochemical; conditions: 3.3 μM ATP, 60 minutes at room temperature
T1 construct: The cytosolic kinase domain of KDR kinase was expressed as a 6His fusion protein in Sf9 insect cells; 6His; made in house; host or cells: Sf9 insect cells
Procedure: The cytosolic kinase domain of KDR kinase was expressed as a 6His fusion protein in Sf9 insect cells. The KDR kinase domain fusion protein was purified over a Ni++ chelating column. Ninety-six well ELISA plates were coated with 5 μg poly(Glu4;Tyr1) (Sigma Chemical Co., St Louis, Mo.) in 100 μl HEPES buffer (20 mM HEPES, pH 7.5, 150 mM NaCl, 0.02% Thimerosal) at 4° overnight. Before use, the plate was washed with HEPES, NaCl buffer and the plates were blocked with 1% BSA, 0.1% Tween 20 in HEPES, NaCl buffer.
Test compounds were serially diluted in 100% DMSO from 4 mM to 0.12 μM in half-log dilutions. These dilutions were further diluted twenty fold in H2O to obtain compound solutions in 5% DMSO. Following loading of the assay plate with 85 μl of assay buffer (20 mM HEPES, pH 7.5, 100 mM KCl, 10 mM MgCl2, 3 mM MnCl2, 0.05% glycerol, 0.005% Triton X-100, 1 mM-mercaptoethanol, with or without 3.3 μM ATP), 5 μl of the diluted compounds were added to a final assay volume of 100 μl. Final concentrations were between 10 μM, and 0.3 nM in 0.25% DMSO. The assay was initiated by the addition of 10 μl (30 ng) of KDR kinase domain.
The assay was incubated with test compound or vehicle alone with gentle agitation at room temperature for 60 minutes. The wells were washed and phosphotyrosines (PY) were probed with an anti-phosphotyrosine (PY), mAb clone 4G10 (Upstate Biotechnology, Lake Placid, N.Y.). PY/anti-PY complexes were detected with an anti-mouse IgG/HRP conjugate (Amersham International plc, Buckinghamshire, England). Phosphotyrosine was quantitated by incubating with 100 μl 3,3′,5,5′tetramethylbenzidine solution (Kirkegaard and Perry, TMB Microwell 1 Component peroxidase substrate). Color development was arrested by the addition of 100 μl 1% HCl-based stop solution (Kirkegaard and Perry, TMB 1 Component Stop Solution).
Optical densities were determined spectrophotometrically at 450 nm in a 96-well plate reader, SpectraMax 250 (Molecular Devices). Background (no ATP in assay) OD values were subtracted from all ODs and the percent inhibition was calculated according to the equation: [formula]

[2] = target: T2, full length KDR receptor in NIH3T3 cells (Homo sapiens, UniProt P35968); test: Cell Mechanistic Assay-Inhibition of 3T3 KDR Phosphorylation; format: cell-based; conditions: NIH3T3 cells expressing KDR, VEGF 30 ng/ml stimulation
T2 construct: NIH3T3 cells expressing the full length KDR receptor were grown in DMEM; expressed in transfected cells; host or cells: NIH3T3 cells (G418 selection)
Procedure: NIH3T3 cells expressing the full length KDR receptor were grown in DMEM (Life Technologies, Inc., Grand Island, N.Y.) supplemented with 10% newborn calf serum, low glucose, 25 mM/L sodium pyruvate, pyridoxine hydrochloride and 0.2 mg/ml of G418 (Life Technologies Inc., Grand Island, N.Y.). The cells were maintained in collagen I-coated T75 flasks (Becton Dickinson Labware, Bedford, Mass.) in a humidified 5% CO2 atmosphere at 37° C.
Fifteen thousand cells were plated into each well of a collagen I-coated 96-well plate in the DMEM growth medium. Six hours later, the cells were washed and the medium was replaced with DMEM without serum. After overnight culture to quiesce the cells, the medium was replaced by Dulbecco's phosphate-buffered saline (Life Technologies Inc., Grand Island, N.Y.) with 0.1% bovine albumin (Sigma Chemical Co., St Louis, Mo.). After adding various concentrations (0-300 nM) of test compounds to the cells in 1% final concentration of DMSO, the cells were incubated at room temperature for 30 minutes. The cells were then treated with VEGF (30 ng/ml) for 10 minutes at room temperature. Following VEGF stimulation, the buffer was removed and the cells were lysed by addition of 150 μl of extraction buffer (50 mM Tris, pH 7.8, supplemented with 10% glycerol, 50 mM BGP, 2 mM EDTA, 10 mM NaF, 0.5 mM NaVO4, and 0.3% TX-100) at 4° C. for 30 minutes.
To assess receptor phosphorylation, 100 microliters of each cell lysate was added to the wells of an ELISA plate precoated with 300 ng of antibody C20 (Santa Cruz Biotechnology, Inc., Santa Cruz, Calif.). Following a 60-minute incubation, the plate was washed and bound KDR was probed for phosphotyrosine using an anti-phosphotyrosine mAb clone 4G10 (Upstate Biotechnology, Lake Placid, N.Y.). The plate was washed and wells were incubated with anti-mouse IgG/HRP conjugate (Amersham International plc, Buckinghamshire, England) for 60 minutes. Wells were washed and phosphotyrosine was quantitated by addition of 100 μl per well of 3,3′,5,5′tetramethylbenzidine (Kirkegaard and Perry, TMB Microwell 1 Component peroxidase substrate) solution. Color development was arrested by the addition of 100 μl 1% HCl based stop solution (Kirkegaard and Perry, TMB 1 Component Stop Solution).
Optical densities (OD) were determined spectrophotometrically at 450 nm in a 96-well plate reader (SpectraMax 250, Molecular Devices). Background (no VEGF added) OD values were subtracted from all ODs and percent inhibition was calculated according to the equation: [formula]
IC50s were determined on some of the exemplary materials with a least squares analysis program using compound concentration versus percent inhibition. Compounds that have IC50≦20 nM in this assay include those of Examples 2, 6, 10, 11, 14, 23, 96, 101, 102, 103, 104, 105. Compounds that have IC50 values between 20 nM and 50 nM include those of examples 1, 4, 8, 9, 12, 13, 17, 24, 93, 98. Compounds that have IC50 values between 50 nM and 400 nM include those of examples 97, 99, and 100.

T2 sequence (P35968 20-1356): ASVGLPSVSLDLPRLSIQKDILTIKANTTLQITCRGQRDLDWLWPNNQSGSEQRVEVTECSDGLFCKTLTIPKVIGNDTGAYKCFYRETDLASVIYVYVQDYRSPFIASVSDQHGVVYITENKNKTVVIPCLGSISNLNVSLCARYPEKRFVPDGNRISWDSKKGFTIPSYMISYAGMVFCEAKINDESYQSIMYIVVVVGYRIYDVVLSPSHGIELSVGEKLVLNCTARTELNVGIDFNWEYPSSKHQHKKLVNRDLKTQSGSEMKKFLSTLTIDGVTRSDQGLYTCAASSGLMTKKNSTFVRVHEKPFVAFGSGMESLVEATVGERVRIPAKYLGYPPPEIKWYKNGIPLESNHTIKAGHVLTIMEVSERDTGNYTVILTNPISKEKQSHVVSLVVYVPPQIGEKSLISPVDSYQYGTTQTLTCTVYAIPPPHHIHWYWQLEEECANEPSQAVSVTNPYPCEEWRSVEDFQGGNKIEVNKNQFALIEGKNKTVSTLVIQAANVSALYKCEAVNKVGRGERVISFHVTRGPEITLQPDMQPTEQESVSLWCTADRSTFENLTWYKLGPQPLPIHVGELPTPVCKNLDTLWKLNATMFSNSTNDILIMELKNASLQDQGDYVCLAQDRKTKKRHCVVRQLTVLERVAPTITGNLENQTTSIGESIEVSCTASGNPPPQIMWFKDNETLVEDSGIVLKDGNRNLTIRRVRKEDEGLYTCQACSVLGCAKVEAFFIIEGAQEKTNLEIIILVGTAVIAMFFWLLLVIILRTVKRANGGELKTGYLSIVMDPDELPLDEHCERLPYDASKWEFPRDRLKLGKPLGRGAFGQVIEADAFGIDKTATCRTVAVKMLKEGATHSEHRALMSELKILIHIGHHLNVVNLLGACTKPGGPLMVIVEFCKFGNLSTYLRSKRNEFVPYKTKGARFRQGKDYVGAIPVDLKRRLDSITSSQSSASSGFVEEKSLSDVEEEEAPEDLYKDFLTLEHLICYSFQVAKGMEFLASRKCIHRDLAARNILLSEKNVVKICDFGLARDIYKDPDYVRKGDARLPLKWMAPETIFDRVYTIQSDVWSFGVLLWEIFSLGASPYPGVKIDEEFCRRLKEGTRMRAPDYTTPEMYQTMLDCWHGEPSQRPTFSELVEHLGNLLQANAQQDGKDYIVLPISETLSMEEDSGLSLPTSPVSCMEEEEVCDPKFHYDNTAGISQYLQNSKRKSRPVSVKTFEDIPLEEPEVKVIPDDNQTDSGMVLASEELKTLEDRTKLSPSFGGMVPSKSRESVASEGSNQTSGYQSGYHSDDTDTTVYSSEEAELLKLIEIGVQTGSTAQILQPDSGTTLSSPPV
T1 sequence (P35968 834-1162 limits assumed): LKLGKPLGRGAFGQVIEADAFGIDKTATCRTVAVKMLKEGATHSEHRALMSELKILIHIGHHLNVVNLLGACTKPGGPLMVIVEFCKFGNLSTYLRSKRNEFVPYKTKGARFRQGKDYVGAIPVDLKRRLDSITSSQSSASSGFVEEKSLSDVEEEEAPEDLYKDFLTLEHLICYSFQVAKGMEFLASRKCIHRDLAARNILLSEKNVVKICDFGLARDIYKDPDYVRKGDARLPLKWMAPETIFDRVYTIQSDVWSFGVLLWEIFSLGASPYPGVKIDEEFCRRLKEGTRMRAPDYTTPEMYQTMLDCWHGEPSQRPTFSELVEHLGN

SMILES | IC50 [1] [nM] | IC50 [2] [nM] | melting point
CNC(=O)c1cc(COc2nnc(Nc3ccc(Cl)cc3)c3ccoc23)ccn1 [Example 14, 4-(4-chlorophenylamino)-7-(2-methylaminocarbonyl-4-pyridylmethoxy)furo-[2,3-d]pyridazine] | ≤ 100 | ≤ 20 | 
c1ccc2c(Nc3ccc4c(c3)CCC4)ncc(Sc3ccncc3)c2c1 [Example 2, 1-(indan-5-ylamino)-4-(4-pyridylthio)isoquinoline] | ≤ 100 | ≤ 20 | 
c1ccc2c(Nc3ccc4c(c3)CCC4)ncc(Cc3ccncc3)c2c1 [Example 6, 1-(indan-5-ylamino)-4-(4-pyridylmethyl)-isoquinoline] | ≤ 100 | ≤ 20 | 
NC(=O)c1cc(COc2nnc(Nc3ccc(Cl)cc3)c3ccsc23)ccn1 [Example 10, 4-(4-chlorophenylamino)-7-(2-aminocarbonyl-4-pyridylmethoxy)thieno-[2,3-d]pyridazine] | ≤ 100 | ≤ 20 | 233 °C
Clc1ccc(Nc2nnc(OCc3ccncc3)c3sccc23)cc1 [Example 8, 4-(4-chlorophenylamino)-7-(4-pyridylmethoxy)thieno-[2,3-d]pyridazine] | ≤ 100 |  | 203 to 205 °C (dec.)
CNC(=O)c1cc(COc2nnc(Nc3ccc(OC)cc3)c3ccoc23)ccn1 [Example 20, 4-(4-methoxyphenylamino)-7-(2-methylaminocarbonyl-4-pyridylmethoxy)furo-[2,3-d]pyridazine] | ≤ 100 |  | 
CNC(=O)c1cc(COc2nnc(Nc3ccc4c(c3)CCC4)c3ccoc23)ccn1 [Example 49] | ≤ 100 |  | 
CNC(=O)c1cc(COc2nnc(Nc3ccc(C)cc3)c3ccoc23)ccn1 [Example 39] | ≤ 100 |  | 
CNC(=O)c1cc(COc2nnc(Nc3ccc(OC)c(Cl)c3)c3ccoc23)ccn1 [Example 44] | ≤ 100 |  | 
CNC(=O)c1cc(COc2nnc(Nc3ccc(Cl)cc3)c3ccsc23)ccn1 [Example 11, 4-(4-chlorophenylamino)-7-(2-methylaminocarbonyl-4-pyridylmethoxy)thieno-[2,3-d]pyridazine] | ≤ 100 | ≤ 20 | 
NC(=O)c1cc(COc2nnc(Nc3ccc(Cl)cc3)c3ccoc23)ccn1 [Example 16, 4-(4-chlorophenylamino)-7-(2-aminocarbonyl-4-pyridylmethoxy)furo-[2,3-d]pyridazine] | ≤ 100 |  | 
Clc1ccc(Nc2nnc(OCc3ccncc3)c3occc23)cc1 [Example 9, 4-(4-chlorophenylamino)-7-(4-pyridylmethoxy)furo[2,3-d]pyridazine] | ≤ 100 | 20 to 50 | 
Clc1ccc(Nc2nnc(Nc3ccc4ncsc4c3)c3sccc23)cc1 [Example 23] |  | ≤ 20 | 
c1nc2c(Nc3ccc4[nH]ncc4c3)nnc(Nc3ccc4[nH]ncc4c3)c2[nH]1 [Example 32] | > 1000 |  | 
CNC(=O)c1cc(Cc2cnc(Nc3ccc(Cl)cc3)c3ccccc23)ccn1 [Example 13, 1-(4-chlorophenylamino)-4-(2-methylaminocarbonyl-4-pyridylmethyl)isoquinoline] | ≤ 100 |  | 
c1cc2c(Nc3ccc4[nH]ncc4c3)nnc(Nc3ccc4[nH]ncc4c3)c2o1 [Example 30] | > 1000 |  | 
c1nc2c(Nc3ccc4ncsc4c3)nnc(Nc3ccc4ncsc4c3)c2[nH]1 [Example 33] | > 1000 |  | 
CNC(=O)c1cc(COc2nnc(Nc3ccc(OC(F)(F)F)cc3)c3ccoc23)ccn1 [Example 43] | ≤ 100 |  | 
Clc1ccc(Nc2ncc(Sc3ccncc3)c3ccccc23)cc1 [Example 1, 1-(4-chlorophenylamino)-4-(4-pyridylthio)isoquinoline] | ≤ 100 |  | 
c1cc2c(Nc3ccc4nn[nH]c4c3)nnc(Nc3ccc4nn[nH]c4c3)c2s1 [Example 26] | > 1000 |  | 

The remaining lines, values ahead:

IC50 [1] [nM] | IC50 [2] [nM] | melting point | SMILES
≤ 100 | ≤ 20 |  | COc1cccc(Nc2nnc(Nc3ccc4ncsc4c3)c3ccccc23)c1 [Example 103]
≤ 100 |  |  | CCNC(=O)c1cc(COc2nnc(Nc3ccc(Cl)cc3)c3ccoc23)ccn1 [Example 82D]
≤ 100 |  |  | CNC(=O)c1cc(COc2nnc(Nc3ccc4c(c3)OCO4)c3ccoc23)ccn1 [Example 52]
≤ 100 |  |  | Brc1ccc2c(c1)CCN2c1nnc(Nc2ccc3ncsc3c2)c2ccccc12 [Example 97]
≤ 100 |  |  | CNC(=O)c1cc(COc2nnc(Nc3ccc4c(c3)CCC4)c3ccsc23)ccn1 [Example 73]
≤ 100 |  |  | CNC(=O)c1cc(COc2nnc(Nc3ccc(Br)cc3)c3ccsc23)ccn1 [Example 72]
> 1000 |  |  | CN(C)C(=O)c1cc(COc2nnc(Nc3ccc(Cl)cc3)c3ccoc23)ccn1 [Example 81]
≤ 100 | ≤ 20 |  | Clc1ccc(Nc2nnc(Nc3ccc4nn[nH]c4c3)c3ccccc23)cc1 [Example 96]
≤ 100 |  |  | CNC(=O)c1cc(COc2nnc(Nc3cccc(OC)c3)c3ccoc23)ccn1 [Example 51]
≤ 100 |  |  | CNC(=O)c1cc(COc2nnc(Nc3cc(C)cc(C)c3)c3ccoc23)ccn1 [Example 54]
≤ 100 | ≤ 20 |  | CC(C)c1ccc(Nc2nnc(Nc3ccc4ncsc4c3)c3ccccc23)cc1 [Example 102]
≤ 100 |  |  | CNC(=O)c1cc(COc2nnc(Nc3ccc(OC)cc3)c3ccsc23)ccn1 [Example 69]
≤ 100 | ≤ 20 |  | Brc1cccc(Nc2nnc(Nc3ccc4ncsc4c3)c3ccccc23)c1 [Example 101]
≤ 100 |  |  | CNC(=O)c1cc(COc2nnc(Nc3ccccc3)c3ccoc23)ccn1 [Example 59]
> 1000 |  |  | c1ccc2c(Nc3ccc4nn[nH]c4c3)nnc(Nc3ccc4nn[nH]c4c3)c2c1 [Example 94]
≤ 100 | ≤ 20 |  | Clc1ccc(Nc2nnc(Nc3ccc4ncsc4c3)c3ccccc23)cc1 [Example 105]
≤ 100 |  |  | CNC(=O)c1cc(COc2nnc(Nc3ccc4c(c3)CCO4)c3ccsc23)ccn1 [Example 66]

— patent US6689883B1, “Substituted pyridines and pyridazines with angiogenesis inhibiting activity” (Bayer Pharmaceuticals Corporation, priority 1999, dated 2004)
